Literature values as cited in patent publication US8524772B2, “Controlled release of N-acetylcysteine (NAC) for reduction of systemic and/or vascular inflammation” (Tiara Pharmaceuticals, Inc., priority 2008, dated 2013).

Tests used:
LDL = conditions: in vitro
[1] = system: lipid loaded macrophages (foam cells)

In the case of `CC(=O)NC(CS)C(=O)O` (stereo not drawn) [NAC, 2-acetamido-3-sulfanylpropanoic acid], the “oxidative modification of LDL” value (LDL) is given as “inhibited”, the “secondary oxidation of LDL by previously oxidized LDL” value (LDL) is given as “markedly inhibited” and the “ability of foam cells to degrade vascular matrix” value [1] is given as “reduce”.
